The values that follow come from patent US20240109881A1, “Heteroaryl Compounds as Ligand Directed Degraders of IRAK4” (Bristol-Myers Squibb Company, priority 2022, published 2024).

This test deals with T1, IRAK4 (Homo sapiens, UniProt Q9NWZ3).
T1 construct: endogenous in cells; host or cells: THP-1 cells
T1 sequence (Q9NWZ3 1-460): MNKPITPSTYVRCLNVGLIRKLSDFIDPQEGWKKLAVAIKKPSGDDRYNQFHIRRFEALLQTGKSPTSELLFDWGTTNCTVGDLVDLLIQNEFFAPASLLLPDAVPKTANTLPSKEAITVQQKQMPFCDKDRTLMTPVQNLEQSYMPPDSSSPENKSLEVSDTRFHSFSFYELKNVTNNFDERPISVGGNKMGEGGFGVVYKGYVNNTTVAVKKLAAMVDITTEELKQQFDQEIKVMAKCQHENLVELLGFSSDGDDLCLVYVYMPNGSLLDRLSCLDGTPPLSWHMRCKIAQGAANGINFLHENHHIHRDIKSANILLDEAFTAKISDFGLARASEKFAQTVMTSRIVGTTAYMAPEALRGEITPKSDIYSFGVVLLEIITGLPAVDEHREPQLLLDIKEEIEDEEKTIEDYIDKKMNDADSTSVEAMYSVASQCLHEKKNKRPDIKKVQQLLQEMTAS
Nature of the test: LVL THP1 HTRF (THP1 Homogeneous Time Resolved Fluorescence). Format: cell-based. Particulars: THP1 cells, 18 h incubation with compound; for DC50: read-out: LVL THP1 HTRF EC50. The gist of the method: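 THP-1 cells in phenol red-free RPMI with 10% FBS were dosed with compound (20 nL in DMSO) for 18 h at 37° C. After 2 h lysis, IRAK4 was detected with anti-IRAK4-d2/anti-IRAK4-K HTRF antibodies for 18 h at room temperature and read at 665/615 nm; a parallel CTG plate was run.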
Background: In TR-FRET formats the signal depends on donor and acceptor labels being close together.

As for `C[C@H](C#N)Nc1cc(-n2ncc3cc(C#N)cnc32)ncc1-n1cc([C@H]2CC[C@H](CCN3CC[C@H]4[C@@H]3CCN4c3ccc([C@@]4(C)CCC(=O)NC4=O)nc3)CC2)nn1` (single isomer, unassigned) [P-418], the “LVL THP1 HTRF YMIN” value is recorded as 1.8% and the DC50 was 0.0149 µM.

As for `C[C@H](C#N)Nc1cc(-n2ncc3cc(C#N)cnc32)ncc1C(=O)N[C@H]1CC[C@H](CCN2CCC(c3ccc([C@@]4(F)CCC(=O)NC4=O)cc3)CC2)CC1` (single isomer, unassigned) [P-430], the “LVL THP1 HTRF YMIN” value is recorded as −0.4% and the DC50 amounted to 0.0055 µM.

On to `C[C@H](C#N)Nc1cc(-n2ncc3cc(C#N)cnc32)ncc1-n1cc([C@H]2CC[C@](O)(CCN3CCN(c4ccc([C@@]5(C)CCC(=O)NC5=O)cc4)CC3)CC2)nn1` (single isomer, unassigned) [P-292], for which the “LVL THP1 HTRF YMIN” value worked out at 7.2% and the DC50 was found to be 0.032 µM.

On to `C[C@H](C#N)Nc1cc(Nc2ncc(Cl)cc2Cl)ncc1-n1cc([C@H]2CC[C@H](CCN3CCN(c4ccc(C5CCC(=O)NC5=O)cc4)CC3)CC2)nn1` (stereo partly drawn) [P-380], for which the “LVL THP1 HTRF YMIN” value worked out at 12.1% and the DC50 amounted to 0.0894 µM.

As for `C[C@H](C#N)Nc1cc(-n2ncc3cc(C#N)cnc32)ncc1-n1cc([C@H]2CC[C@H](CCN3CC[C@H](c4ccc([C@@]5(F)CCC(=O)NC5=O)cc4)C[C@H]3C)CC2)nn1` (single isomer, unassigned) [P-326], the “LVL THP1 HTRF YMIN” value is reported as 0.3% and the DC50 was 0.004 µM.

For the compound `C[C@H](C#N)Nc1cc(-n2ncc3cc(C#N)cnc32)ncc1-n1cc([C@H]2CC[C@H](CCN3CC[C@@H]4[C@H]3CN4c3ccc(N4CCC(=O)NC4=O)cc3)CC2)nn1` (single isomer, unassigned) [P-495], the “LVL THP1 HTRF YMIN” value is 2.7% and the DC50 turned out to be 0.11 µM.

Regarding `C[C@H](C#N)Nc1cc(-n2ncc3cc(C#N)cnc32)ncc1-n1cc(C2CCC(CCN3CCN(c4ccc([C@@]5(C)CCC(=O)NC5=O)cc4)[C@H](C)C3)CC2)nn1` (stereo partly drawn) [P-239], the “LVL THP1 HTRF YMIN” value was found to be 8.6% and the DC50 worked out at 0.165 µM.

On to `C[C@H](C#N)Nc1cc(Nc2ncncc2F)ncc1-n1cc([C@H]2CC[C@H](CCN3CCN(c4ccc(C5CCC(=O)NC5=O)cc4)CC3)CC2)nn1` (stereo partly drawn) [P-383], for which the “LVL THP1 HTRF YMIN” value was 5.6% and the DC50 is 0.0313 µM.

Regarding `CC1CN(CC[C@H]2CC[C@H](c3cn(-c4cnc(-n5ncc6cc(C#N)cnc65)cc4N[C@H](C)C#N)nn3)CC2)CCC1c1ccc([C@@]2(C)CCC(=O)NC2=O)cc1` (stereo partly drawn) [P-285], the “LVL THP1 HTRF YMIN” value was determined as 10.4% and the DC50 was 0.0185 µM.

As for `C[C@H](C#N)Nc1cc(-n2ncc3cc(C#N)cnc32)ncc1-n1cc([C@H]2CC[C@H](CCN3CC[C@@H](c4ccc([C@@]5(C)CCC(=O)NC5=O)cc4)C[C@@H]3C)CC2)nn1` (single isomer, unassigned) [P-283], the “LVL THP1 HTRF YMIN” value was 5.2% and the DC50 was found to be 0.0057 µM.

For the compound `C[C@H](C#N)Nc1cc(-n2ncc3cc(C#N)c(N)nc32)ncc1-n1cc([C@H]2CC[C@H](CCN3CC[C@H]4[C@@H]3CCN4c3ccc([C@@]4(C)CCC(=O)NC4=O)cc3)CC2)nn1` (single isomer, unassigned) [P-487], the “LVL THP1 HTRF YMIN” value worked out at 2.7% and the DC50 turned out to be 0.008 µM.

Consider `C[C@H](C#N)Nc1cc(-n2ncc3cc(C#N)cnc32)ncc1-n1cc([C@H]2CC[C@H](CCN3CC[C@H]4[C@@H]3CCN4c3ccc(N4CCC(=O)NC4=O)c(Cl)c3)CC2)nn1` (single isomer, unassigned) [P-478], for which the “LVL THP1 HTRF YMIN” value came out at 17.1% and the DC50 worked out at 0.161 µM.

Consider `C[C@H](C#N)Nc1cc(-n2ncc3cc(C#N)cnc32)ncc1C(=O)N[C@H]1CC[C@H](CCN2CCN(c3ccc(N4CCC(=O)NC4=O)cc3)CC2)CC1` [P-321], for which the “LVL THP1 HTRF YMIN” value amounted to 24.2% and the DC50 came to 0.645 µM.

`C[C@H](C#N)Nc1cc(-n2ncc3cc(C#N)cnc32)ncc1-n1cc([C@H]2CC[C@H](CCN3CCC(c4cccc5c(N6CCC(=O)NC6=O)nn(C)c45)CC3)CC2)nn1` [P-335]: the “LVL THP1 HTRF YMIN” value is recorded as 5.1% and the DC50 was 0.0298 µM.

In the case of `C[C@H](C#N)Nc1cc(-n2ncc3cc(C#N)c(N)nc32)ncc1-n1cc([C@H]2CC[C@H](CCN3CCN(c4ccc([C@@]5(C)CCC(=O)NC5=O)nn4)CC3)CC2)nn1` (single isomer, unassigned) [P-308], the “LVL THP1 HTRF YMIN” value amounted to 3.5% and the DC50 worked out at 0.0021 µM.

Take `C[C@H](C#N)Nc1cc(-n2ncc3cc(C#N)c(N)nc32)ncc1-n1cc([C@H]2CC[C@H](CCN3CCN(c4ccc([C@@]5(C)CCC(=O)NC5=O)cn4)[C@@H](C)C3)CC2)nn1` (single isomer, unassigned) [P-258]: the “LVL THP1 HTRF YMIN” value stood at 2.0% and the DC50 came out at 0.0069 µM.

Consider `CC1CN(CC[C@H]2CC[C@H](c3cn(-c4cnc(-n5ncc6cc(C#N)cnc65)cc4N[C@H](C)C#N)nn3)CC2)CCC1c1ccc([C@@]2(F)CCC(=O)NC2=O)cc1` (single isomer, unassigned) [P-333], for which the “LVL THP1 HTRF YMIN” value is on record as 26.8% and the DC50 came to 0.334 µM.

`C[C@]1(c2ccc(N3CCN(CC[C@H]4CC[C@H](c5cn(-c6cnc(-n7ncc8cc(C#N)c(N)nc87)cc6NC6(C#N)CC6)nn5)CC4)CC3)cc2)CCC(=O)NC1=O` [P-246]: the “LVL THP1 HTRF YMIN” value is 4.1% and the DC50 amounted to 0.0068 µM.

As for `C[C@H](C#N)Nc1cc(-c2ccc3cc(C#N)cnn23)ncc1-n1cc([C@H]2CC[C@H](CCN3CCN(c4ccc(C5CCC(=O)NC5=O)cc4)CC3)CC2)nn1` (stereo partly drawn) [P-315], the “LVL THP1 HTRF YMIN” value was 1.4% and the DC50 turned out to be 0.0022 µM.

With `N#Cc1cnc2c(cnn2-c2cc(NCC3CCOCC3)c(-n3cc([C@H]4CC[C@H](CCN5CCN(c6ccc(C7CCC(=O)NC7=O)cc6)CC5)CC4)nn3)cn2)c1` (stereo partly drawn) [P-407], the “LVL THP1 HTRF YMIN” value was 5.6% and the DC50 turned out to be 0.0358 µM.

With `C[C@H](C#N)Nc1cc(-n2ncc3cc(C#N)cnc32)ncc1-n1cc([C@H]2CC[C@H](CCN3CCC4(c5ccc(N6CCC(=O)NC6=O)cc5)CC4C3)CC2)nn1` (stereo partly drawn) [P-471], the “LVL THP1 HTRF YMIN” value worked out at 7.7% and the DC50 was determined as 0.0879 µM.

As for `C[C@H](C#N)Nc1cc(-n2ncc3cc(C#N)cnc32)ncc1C(=O)N[C@H]1CC[C@H](CCN2CCN(c3ccc(C4CCC(=O)NC4=O)cc3)C3(COC3)C2)CC1` (stereo partly drawn) [P-190], the “LVL THP1 HTRF YMIN” value is on record as 24.9% and the DC50 came to 0.158 µM.

With `C[C@H](C#N)Nc1cc(-n2ncc3cc(C#N)cnc32)ncc1C(=O)N[C@H]1CC[C@H](CCN2CCN(c3ccc([C@@]4(C)CCC(=O)NC4=O)cn3)[C@@H](C)C2)CC1` (single isomer, unassigned) [P-276], the “LVL THP1 HTRF YMIN” value was found to be 6.0% and the DC50 was 0.0114 µM.

For `C[C@H](C#N)Nc1cc(-n2ncc3cc(C#N)cnc32)ncc1-n1cc([C@H]2CC[C@H](CCN3CCC4(C3)CN(c3ccc([C@@]5(C)CCC(=O)NC5=O)cc3)C4)CC2)nn1` [P-448], the “LVL THP1 HTRF YMIN” value is on record as 3.9% and the DC50 was 0.0321 µM.

With `C[C@H](C#N)Nc1cc(Nc2ncc(C#N)cc2Cl)ncc1-n1cc([C@H]2CC[C@H](CCN3CCN(c4ccc(N5CCC(=O)NC5=O)cc4)[C@H](C)C3)CC2)nn1` [P-378], the “LVL THP1 HTRF YMIN” value was 2.2% and the DC50 is 0.013 µM.

Turning to `C[C@H](C#N)Nc1cc(-n2ncc3cc(C#N)c(N)nc32)ncc1-n1cc(C2CCC(CCN3CCN(c4ccc(C5CCC(=O)NC5=O)cc4)[C@@H](C)C3)CC2)nn1` (stereo partly drawn) [P-219], the “LVL THP1 HTRF YMIN” value is recorded as 1.8% and the DC50 came to 0.006 µM.

As to `C[C@H](C#N)Nc1cc(-n2ncc3cc(C#N)c(N)nc32)ncc1-n1cc(C2CCC(CCN3C[C@@H](C)N(c4ccc(C5CCC(=O)NC5=O)cc4)C[C@@H]3C)CC2)nn1` (stereo partly drawn) [P-207], the “LVL THP1 HTRF YMIN” value stood at 1.3% and the DC50 is over 5 µM.

Regarding `C[C@H](C#N)Nc1cc(Nc2ncc(C#N)cc2F)ncc1-n1cc([C@H]2CC[C@H](CCN3CCN(c4ccc(C5CCC(=O)NC5=O)cc4)CC3)CC2)nn1` (stereo partly drawn) [P-381], the “LVL THP1 HTRF YMIN” value was 2.1% and the DC50 worked out at 0.0083 µM.

`Cc1cc(N2CC[C@H]3[C@@H]2CCN3CC[C@H]2CC[C@H](c3cn(-c4cnc(-n5ncc6cc(C#N)cnc65)cc4N[C@H](C)C#N)nn3)CC2)ccc1N1CCC(=O)NC1=O` (single isomer, unassigned) [P-474]: the “LVL THP1 HTRF YMIN” value came to 5.0% and the DC50 stood at 0.07 µM.

As for `CC[C@@H]1CN(CC[C@H]2CC[C@H](c3cn(-c4cnc(-n5ncc6cc(C#N)cnc65)cc4N[C@H](C)C#N)nn3)CC2)CCN1c1ccc(N2CCC(=O)NC2=O)cc1` [P-393], the “LVL THP1 HTRF YMIN” value is reported as −3.4% and the DC50 stood at 0.0061 µM.

As for `C[C@H](C#N)Nc1cc(-n2ncc3cc(C#N)cnc32)ncc1-n1cc([C@H]2CC[C@H](CCN3CCC(c4ccc([C@@]5(C)CCC(=O)NC5=O)cc4)C(F)(F)C3)CC2)nn1` (single isomer, unassigned) [P-417], the “LVL THP1 HTRF YMIN” value was 1.8% and the DC50 was found to be 0.0514 µM.

With `C[C@H](C#N)Nc1cc(-n2ncc3cc(C#N)cnc32)ncc1-c1ncn(C2CCC(CCN3CCN(c4ccc(C5CCC(=O)NC5=O)cc4)CC3)CC2)n1` (stereo partly drawn) [P-224], the “LVL THP1 HTRF YMIN” value worked out at 15.9%.
